Laboratory results as given in ChEMBL document CHEMBL1201862, “PubChem BioAssay data set” (2004).
Calls of active or inactive are those of the source.

Tests used:
[1] = molecular target: RNA-editing ligase 1, mitochondrial (Trypanosoma brucei brucei, UniProt P86926); test: inhibition of trypanosome RNA editing ligase – biochemical, fluorescence, Trypanosoma brucei, dose response (AID 1117295); type: functional
[2] = molecular target: Cyclin-dependent kinase 2 (Homo sapiens, UniProt P24941); type: functional;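 also: CDK2 measured as one member of a broad kinome profiling panel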
[3] = molecular target: RAC-gamma serine/threonine-protein kinase (Homo sapiens, UniProt Q9Y243); type: functional
LIM domain kinase 1 = LIM domain kinase 1 (Homo sapiens, UniProt P53667); test: Navigating the Kinome. Panel member name: LIMK1; type: functional
[4] = molecular target: Death-associated protein kinase 3 (Homo sapiens, UniProt O43293); type: functional;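 also: measured as one member of a kinome-wide profiling panel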
[5] = molecular target: Tyrosine-protein kinase JAK2 (Homo sapiens, UniProt O60674); type: functional;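 also: JAK2 tested as one member of a kinase panel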
[6] = molecular target: MAP kinase-activated protein kinase 3 (Homo sapiens, UniProt Q16644); type: functional;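 also: value comes from a kinome-wide profiling panel in which MAPKAPK3 is one of the panel members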
[7] = molecular target: Protein kinase C delta type (Homo sapiens, UniProt Q05655); type: functional
[8] = molecular target: Casein kinase I isoform delta (Homo sapiens, UniProt P48730); type: functional;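 also: measured as one member (CSNK1D) of a kinome panel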
[9] = molecular target: Serine/threonine-protein kinase PAK 4 (Homo sapiens, UniProt O96013); type: functional;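 also: value obtained within a kinome profiling panel in which PAK4 was one of the panel members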
CAAX prenyl protease 2 = molecular target: T1, CAAX prenyl protease 2 (Saccharomyces cerevisiae S288c, UniProt Q03530); type: biochemical
T1 sequence (Q03530 whole entry): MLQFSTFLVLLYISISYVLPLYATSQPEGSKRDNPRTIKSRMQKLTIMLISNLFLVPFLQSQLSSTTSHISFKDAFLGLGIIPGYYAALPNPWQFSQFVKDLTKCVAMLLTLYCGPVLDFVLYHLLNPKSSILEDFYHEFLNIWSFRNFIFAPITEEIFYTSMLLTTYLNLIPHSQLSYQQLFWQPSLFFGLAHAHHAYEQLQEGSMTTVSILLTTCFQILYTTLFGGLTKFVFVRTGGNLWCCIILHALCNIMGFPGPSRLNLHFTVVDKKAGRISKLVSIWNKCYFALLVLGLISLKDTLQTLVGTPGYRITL

Chain of LIM domain kinase 1 (P53667 whole entry, the tested form may be a part): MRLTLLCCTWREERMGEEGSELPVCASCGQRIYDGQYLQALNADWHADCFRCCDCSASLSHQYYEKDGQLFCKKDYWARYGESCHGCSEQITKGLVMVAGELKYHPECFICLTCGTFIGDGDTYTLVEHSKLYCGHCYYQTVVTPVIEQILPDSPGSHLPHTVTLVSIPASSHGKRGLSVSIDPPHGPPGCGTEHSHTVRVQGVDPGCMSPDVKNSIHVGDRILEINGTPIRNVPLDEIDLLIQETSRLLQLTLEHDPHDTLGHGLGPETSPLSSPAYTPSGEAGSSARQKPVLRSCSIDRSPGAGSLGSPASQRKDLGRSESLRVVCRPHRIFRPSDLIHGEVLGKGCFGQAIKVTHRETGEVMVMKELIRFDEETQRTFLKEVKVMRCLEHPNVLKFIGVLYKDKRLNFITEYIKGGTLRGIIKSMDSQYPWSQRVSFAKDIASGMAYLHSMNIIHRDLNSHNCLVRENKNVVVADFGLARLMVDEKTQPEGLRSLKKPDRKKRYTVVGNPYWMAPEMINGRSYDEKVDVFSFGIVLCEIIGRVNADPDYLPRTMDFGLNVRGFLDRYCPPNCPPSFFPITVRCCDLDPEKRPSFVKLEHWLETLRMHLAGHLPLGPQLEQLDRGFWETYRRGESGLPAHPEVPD
Chain of Tyrosine-protein kinase JAK2 (O60674 whole entry): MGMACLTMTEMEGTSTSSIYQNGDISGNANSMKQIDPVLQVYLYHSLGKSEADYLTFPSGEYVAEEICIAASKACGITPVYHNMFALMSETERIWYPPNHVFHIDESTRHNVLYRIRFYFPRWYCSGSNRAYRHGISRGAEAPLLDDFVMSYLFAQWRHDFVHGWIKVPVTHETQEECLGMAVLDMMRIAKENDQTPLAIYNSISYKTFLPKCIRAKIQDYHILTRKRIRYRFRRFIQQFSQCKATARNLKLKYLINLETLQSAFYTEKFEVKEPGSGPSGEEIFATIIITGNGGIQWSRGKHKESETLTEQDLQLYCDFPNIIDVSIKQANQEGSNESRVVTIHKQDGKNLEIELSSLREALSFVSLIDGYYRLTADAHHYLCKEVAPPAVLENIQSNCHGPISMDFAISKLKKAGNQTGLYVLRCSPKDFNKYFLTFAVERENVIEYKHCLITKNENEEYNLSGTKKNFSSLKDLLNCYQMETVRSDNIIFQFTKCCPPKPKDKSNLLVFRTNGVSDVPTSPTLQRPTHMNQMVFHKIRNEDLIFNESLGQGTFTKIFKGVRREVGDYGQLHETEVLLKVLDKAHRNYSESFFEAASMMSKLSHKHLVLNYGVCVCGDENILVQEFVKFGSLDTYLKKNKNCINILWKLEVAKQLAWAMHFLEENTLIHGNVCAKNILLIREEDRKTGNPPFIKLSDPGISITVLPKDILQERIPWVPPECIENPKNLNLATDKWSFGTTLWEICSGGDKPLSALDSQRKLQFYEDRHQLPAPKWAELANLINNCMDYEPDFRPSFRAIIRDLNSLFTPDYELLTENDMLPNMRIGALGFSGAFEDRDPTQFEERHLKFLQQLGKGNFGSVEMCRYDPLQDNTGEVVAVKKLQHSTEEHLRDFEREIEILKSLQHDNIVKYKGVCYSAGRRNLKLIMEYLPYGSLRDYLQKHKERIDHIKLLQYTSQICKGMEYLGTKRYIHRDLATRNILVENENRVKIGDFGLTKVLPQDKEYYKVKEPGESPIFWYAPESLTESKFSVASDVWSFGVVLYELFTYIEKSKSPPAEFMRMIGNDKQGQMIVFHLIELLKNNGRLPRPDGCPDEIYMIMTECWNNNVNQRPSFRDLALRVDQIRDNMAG
Chain of Death-associated protein kinase 3 (O43293 whole entry): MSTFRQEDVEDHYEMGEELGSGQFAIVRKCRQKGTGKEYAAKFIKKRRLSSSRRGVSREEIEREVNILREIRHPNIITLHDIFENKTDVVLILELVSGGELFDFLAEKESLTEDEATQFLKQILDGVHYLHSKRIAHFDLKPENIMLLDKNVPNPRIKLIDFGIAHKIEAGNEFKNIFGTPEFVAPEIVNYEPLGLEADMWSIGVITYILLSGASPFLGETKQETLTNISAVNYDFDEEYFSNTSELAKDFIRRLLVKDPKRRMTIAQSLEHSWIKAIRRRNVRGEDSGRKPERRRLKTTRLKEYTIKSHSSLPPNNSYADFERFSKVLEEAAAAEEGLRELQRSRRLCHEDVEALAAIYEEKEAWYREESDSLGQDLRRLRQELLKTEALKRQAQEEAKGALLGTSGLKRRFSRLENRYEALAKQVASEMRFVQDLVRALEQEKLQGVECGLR
Chain of Protein kinase C delta type (Q05655 whole entry, canonical isoform): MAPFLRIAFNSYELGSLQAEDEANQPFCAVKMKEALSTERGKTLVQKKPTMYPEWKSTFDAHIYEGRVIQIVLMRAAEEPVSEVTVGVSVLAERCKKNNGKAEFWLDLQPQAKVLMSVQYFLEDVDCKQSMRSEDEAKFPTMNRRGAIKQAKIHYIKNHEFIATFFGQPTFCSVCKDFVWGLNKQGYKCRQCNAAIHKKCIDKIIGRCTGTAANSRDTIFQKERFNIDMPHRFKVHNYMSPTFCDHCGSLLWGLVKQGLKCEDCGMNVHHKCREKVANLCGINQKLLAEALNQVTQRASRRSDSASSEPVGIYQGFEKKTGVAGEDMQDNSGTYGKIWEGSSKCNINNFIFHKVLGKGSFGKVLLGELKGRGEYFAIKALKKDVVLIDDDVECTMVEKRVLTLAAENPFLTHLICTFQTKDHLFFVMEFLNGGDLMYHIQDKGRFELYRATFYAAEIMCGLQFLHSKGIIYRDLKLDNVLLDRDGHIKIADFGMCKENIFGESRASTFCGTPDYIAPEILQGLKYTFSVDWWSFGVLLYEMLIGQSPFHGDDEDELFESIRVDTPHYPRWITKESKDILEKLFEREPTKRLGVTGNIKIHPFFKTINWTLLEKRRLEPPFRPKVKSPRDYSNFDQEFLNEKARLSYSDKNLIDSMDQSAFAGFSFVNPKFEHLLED
Chain of MAP kinase-activated protein kinase 3 (Q16644 whole entry): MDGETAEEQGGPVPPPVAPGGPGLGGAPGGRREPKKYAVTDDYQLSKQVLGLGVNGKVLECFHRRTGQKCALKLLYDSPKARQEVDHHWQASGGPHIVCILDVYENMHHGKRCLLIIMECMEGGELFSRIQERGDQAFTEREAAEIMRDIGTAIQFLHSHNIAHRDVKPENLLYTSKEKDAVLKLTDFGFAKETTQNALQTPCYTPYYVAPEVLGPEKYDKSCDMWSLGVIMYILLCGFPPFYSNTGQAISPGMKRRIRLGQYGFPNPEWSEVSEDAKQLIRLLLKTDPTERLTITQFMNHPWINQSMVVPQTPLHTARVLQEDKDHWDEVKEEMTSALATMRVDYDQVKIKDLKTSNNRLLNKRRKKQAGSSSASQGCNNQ
Chain of Casein kinase I isoform delta (P48730 whole entry, canonical isoform): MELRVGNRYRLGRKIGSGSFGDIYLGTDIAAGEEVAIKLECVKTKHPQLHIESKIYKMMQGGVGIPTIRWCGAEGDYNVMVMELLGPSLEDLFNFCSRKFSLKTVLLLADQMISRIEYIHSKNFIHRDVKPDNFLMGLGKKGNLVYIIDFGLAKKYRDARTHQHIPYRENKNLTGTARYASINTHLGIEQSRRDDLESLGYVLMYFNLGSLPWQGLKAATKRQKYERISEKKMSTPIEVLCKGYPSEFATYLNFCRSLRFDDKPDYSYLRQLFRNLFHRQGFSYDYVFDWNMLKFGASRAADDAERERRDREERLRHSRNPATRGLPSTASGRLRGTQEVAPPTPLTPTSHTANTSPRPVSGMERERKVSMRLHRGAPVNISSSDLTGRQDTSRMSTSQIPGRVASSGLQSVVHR
Chain of RNA-editing ligase 1, mitochondrial (P86926 whole entry): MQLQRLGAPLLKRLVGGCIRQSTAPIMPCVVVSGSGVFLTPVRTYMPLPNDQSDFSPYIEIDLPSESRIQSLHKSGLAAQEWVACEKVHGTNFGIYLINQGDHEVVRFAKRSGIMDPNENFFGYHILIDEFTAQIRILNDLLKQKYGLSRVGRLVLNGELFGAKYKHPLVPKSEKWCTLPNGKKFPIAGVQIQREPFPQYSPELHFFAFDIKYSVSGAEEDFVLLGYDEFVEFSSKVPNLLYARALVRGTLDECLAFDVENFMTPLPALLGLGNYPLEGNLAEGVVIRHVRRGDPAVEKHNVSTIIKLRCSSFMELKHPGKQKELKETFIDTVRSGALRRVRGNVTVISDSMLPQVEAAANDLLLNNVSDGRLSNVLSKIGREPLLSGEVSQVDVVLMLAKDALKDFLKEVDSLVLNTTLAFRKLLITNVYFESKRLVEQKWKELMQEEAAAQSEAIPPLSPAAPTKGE
Chain of RAC-gamma serine/threonine-protein kinase (Q9Y243 whole entry, the tested form may be a part): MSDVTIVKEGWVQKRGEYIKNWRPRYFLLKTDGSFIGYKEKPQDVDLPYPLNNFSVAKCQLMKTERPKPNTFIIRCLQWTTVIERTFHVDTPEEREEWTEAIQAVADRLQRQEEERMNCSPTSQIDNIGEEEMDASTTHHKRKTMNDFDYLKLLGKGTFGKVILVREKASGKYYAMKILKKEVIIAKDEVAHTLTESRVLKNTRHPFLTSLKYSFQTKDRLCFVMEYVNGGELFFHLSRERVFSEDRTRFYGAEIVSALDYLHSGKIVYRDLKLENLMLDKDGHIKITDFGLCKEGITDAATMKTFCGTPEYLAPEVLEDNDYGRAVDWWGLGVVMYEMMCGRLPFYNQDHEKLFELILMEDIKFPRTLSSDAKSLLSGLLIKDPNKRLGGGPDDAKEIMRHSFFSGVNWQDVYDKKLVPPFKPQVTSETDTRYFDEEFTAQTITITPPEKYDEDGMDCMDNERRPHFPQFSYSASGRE

## CCC(C)NC(=O)c1c(N)n(CCCOC)c2nc3ccccc3nc12 (stereo unspecified)
[1]
  IC50: 15100 nM (inactive)

## CC(=NNC(=N)N)c1cc(NC(=O)NCCCCCCNC(=O)Nc2cc(C(C)=NNC(=N)N)cc(C(C)=NNC(=N)N)c2)cc(C(C)=NNC(=N)N)c1
[2]
  Ki: 501 nM (active)
[3]
  Ki: 398 nM (active)
LIM domain kinase 1
  Ki: 1260 nM (active)
[4]
  Ki: 158 nM (active)
[5]
  Ki: 1000 nM (active)
[6]
  Ki: 631 nM (active)
[7]
  Ki: 316 nM (active)
[8]
  Ki: > 7940 nM (inactive)
[9]
  Ki: 2510 nM (active)

## Cc1cc(N)c2cc(NC(=O)/C=C/c3ccccc3Cl)ccc2n1
CAAX prenyl protease 2
  AC50: 6780 nM (active)
